Holding throughout (assay): ≥ marks a high value that may be exact or a test limit, other limits are often not marked, values filed in µg/mL are converted to µM
Assay [1] concerns Staphylococcus aureus ATCC 25923.
The test system of assay [2] is Escherichia coli ATCC 25922.
The test system of assay [3] is Pseudomonas aeruginosa CMCCB 10104.
For assay [4], the system named is Candida albicans ATCC 2002.
Another assay has as its system Escherichia coli.
The test system of another assay is Staphylococcus aureus.
The test system of assay [5] is Pseudomonas aeruginosa PAO1.
The test system of assay [6] is Salmonella enterica subsp. enterica serovar Typhimurium ATCC 14028.
Assay [7] deals with Acinetobacter baumannii ATCC 19606.
The subject of assay [8] is Klebsiella pneumoniae ATCC 13883.

SMILES strings stand for the structures. Values after ≈ are worked out from the molar mass of the structure shown. Values joined by “and” are separate entries in the source; they are usually repeats but may differ in a detail not shown here. Equal values may be shown once. A value given as a limit tells only on which side of the number the result lay.

Take `CC[C@H](C)[C@@H]1NC(=O)[C@H](C)NC(=O)[C@@H](NC(=O)[C@H](Cc2ccccc2)NC(=O)[C@H](C)NC(=O)[C@@H](NC(=O)[C@@H]2CCCN2C(=O)[C@H](CC(C)C)NC(=O)[C@@H](NC(=O)[C@H](CC(N)=O)NC(=O)[C@H](C)NC(=O)[C@H](C)NC(=O)[C@@H](NC(=O)[C@H](CCCN=C(N)N)NC(=O)[C@@H](NC(=O)[C@@H](NC(=O)[C@H](C)NC(=O)[C@@H]2CCCN2C(=O)[C@H](CC(C)C)NC(=O)[C@@H](N)Cc2ccccc2)C(C)C)[C@@H](C)CC)C(C)C)C(C)C)[C@@H](C)O)CSSC[C@@H](C(=O)O)NC(=O)[C@H](CCCCN)NC(=O)[C@H](CCCCN)NC(=O)[C@H](CO)NC1=O` [FLPAVIRVAANVLPTAFCAISKKC]: the MIC (in general, the lowest concentration that inhibits growth of the organism) in assay [1] was 2.61 µM (≈ 6.59 µg/mL); in assay [2] it was 2.61 µM (≈ 6.59 µg/mL); in assay [3] it was 5.21 µM (≈ 13.2 µg/mL); in assay [4] it was 1.3 µM (≈ 3.3 µg/mL).
With `CC[C@H](C)[C@@H]1NC(=O)[C@H](CCCCN)NC(=O)[C@@H](NC(=O)[C@H](CCCCN)NC(=O)[C@H](CC(C)C)NC(=O)[C@H](CC(N)=O)NC(=O)[C@H](CC(=O)O)NC(=O)[C@H](CC(C)C)NC(=O)[C@H](CC(C)C)NC(=O)[C@@H](NC(=O)[C@@H](NC(=O)[C@H](C)NC(=O)[C@@H](NC(=O)[C@H](CC(N)=O)NC(=O)[C@H](CCCCN)NC(=O)[C@H](C)NC(=O)[C@@H](NC(=O)[C@H](CC(N)=O)NC(=O)[C@H](CCCCN)NC(=O)[C@H](C)NC(=O)[C@@H](NC(=O)[C@H](CC(N)=O)NC(=O)[C@H](CCSC)NC(=O)[C@H](Cc2ccccc2)NC(=O)CN)[C@@H](C)O)C(C)C)C(C)C)C(C)C)[C@@H](C)O)CSSC[C@@H](C(=O)O)NC(=O)CNC(=O)CNC(=O)[C@H]([C@@H](C)O)NC1=O` [GFMNTAKNVAKNVAVTLLDNLKCKITGGC], the MIC was determined as 5.89 µM (≈ 17.8 µg/mL) in assay [1], 2.94 µM (≈ 8.89 µg/mL) in assay [2], 5.89 µM (≈ 17.8 µg/mL) in [3] and 2.94 µM (≈ 8.89 µg/mL) in assay [4].
For the compound `CC[C@H](C)[C@H](NC(=O)CN)C(=O)N[C@@H](CC(C)C)C(=O)NCC(=O)N[C@@H](CC(N)=O)C(=O)N[C@H](C(=O)N[C@H](C(=O)NCC(=O)N[C@@H](CCSC)C(=O)NCC(=O)N[C@@H](CCCCN)C(=O)N[C@@H](CCCCN)C(=O)N[C@H](C(=O)N[C@H](C(=O)N[C@H]1CSSC[C@@H](C(=O)O)NC(=O)[C@H](CC(C)C)NC(=O)CNC(=O)[C@H](CO)NC(=O)[C@H](CC(C)C)NC(=O)CNC1=O)C(C)C)C(C)C)C(C)C)[C@@H](C)CC` [GILGNIVGMGKKVVCGLSGLC], the minimum inhibitory concentration (MIC) stood at 5.6 µM (≈ 11.3 µg/mL) in [1], 5.6 µM (≈ 11.3 µg/mL) in [2], 11.2 µM (≈ 22.6 µg/mL) in assay [3] and 3.32 µM (≈ 6.69 µg/mL) in assay [4].
As for `CC[C@H](C)[C@H](NC(=O)CN)C(=O)N[C@@H](CC(C)C)C(=O)N[C@@H](CO)C(=O)NCC(=O)N[C@H](C(=O)N[C@@H](CC(C)C)C(=O)NCC(=O)N[C@@H](CCSC)C(=O)NCC(=O)N[C@@H](CCCCN)C(=O)N[C@@H](CCCCN)C(=O)N[C@H](C(=O)N[C@H](C(=O)N[C@H]1CSSC[C@@H](C(=O)O)NC(=O)[C@H](CC(C)C)NC(=O)CNC(=O)[C@H](CO)NC(=O)[C@H](CC(C)C)NC(=O)CNC1=O)C(C)C)[C@@H](C)CC)C(C)C` [GILSGVLGMGKKIVCGLSGLC], the MIC came to 25 µM (≈ 50.1 µg/mL) against Escherichia coli; 4.39 µM (≈ 8.79 µg/mL) in assay [1]; 2.19 µM (≈ 4.4 µg/mL) in [2]; 50 µM (≈ 100 µg/mL) with Staphylococcus aureus; 4.39 µM (≈ 8.79 µg/mL) in [3]; 2.19 µM (≈ 4.4 µg/mL) in assay [4].
In the case of `CC[C@H](C)[C@H](NC(=O)CNC(=O)[C@H](CCCCN)NC(=O)CNC(=O)[C@H](C)NC(=O)[C@H](Cc1ccccc1)NC(=O)[C@H](CCCCN)NC(=O)[C@H](CO)NC(=O)[C@H](Cc1ccccc1)NC(=O)[C@H](CC(C)C)NC(=O)CN)C(=O)N[C@H](C(=O)N[C@@H](CC(N)=O)C(=O)N[C@@H](Cc1ccccc1)C(=O)N[C@@H](CC(C)C)C(=O)N[C@H](C(=O)N[C@@H](CCC(=O)O)C(=O)NCC(=O)N[C@H](C(=O)N[C@@H](CCC(=O)O)C(=O)O)C(C)C)[C@@H](C)CC)C(C)C` [GLFSKFAGKGIVNFLIEGVE], the MIC in assay [1] was found to be 7.2 µM (≈ 15.3 µg/mL); in assay [2], 14.3 µM (≈ 30.5 µg/mL); in assay [3], 7.2 µM (≈ 15.3 µg/mL); in assay [4], 14.3 µM (≈ 30.5 µg/mL).
With `CC(C)C[C@H](NC(=O)CN)C(=O)N[C@@H](CC(C)C)C(=O)N[C@@H](CC(=O)O)C(=O)N[C@H](C(=O)N[C@@H](Cc1ccccc1)C(=O)N[C@@H](CCCCN)C(=O)N[C@@H](CC(N)=O)C(=O)N[C@@H](CC(C)C)C(=O)N[C@@H](C)C(=O)N[C@@H](CC(C)C)C(=O)N[C@@H](CC(N)=O)C(=O)N[C@@H](C)C(=O)N[C@@H](C)C(=O)N[C@@H](CCC(=O)O)C(=O)N[C@@H](CO)C(=O)N[C@@H](C)C(=O)NCC(=O)N[C@H](C(=O)N[C@@H](CO)C(=O)N[C@H](C(=O)N[C@@H](CC(C)C)C(=O)N[C@@H](CC(N)=O)C(=O)N[C@@H](CO)C(=O)N[C@@H](CC(C)C)C(=O)N[C@@H](CO)C(=O)N[C@H]1CSSC[C@@H](C(=O)O)NC(=O)[C@H]([C@@H](C)O)NC(=O)[C@H](CCCCN)NC(=O)[C@H](CO)NC(=O)[C@H](CC(C)C)NC(=O)[C@H](CCCCN)NC1=O)C(C)C)C(C)C)[C@@H](C)O` [GLLDTFKNLALNAAESAGVSVLNSLSCKLSKTC], the MIC in [1] came out at 2.97 µM (≈ 9.99 µg/mL); in assay [2] it was 5.94 µM (≈ 20 µg/mL); in assay [3], 5.94 µM (≈ 20 µg/mL); in [4], 2.97 µM (≈ 9.99 µg/mL).
In the case of `CC[C@H](C)[C@H](NC(=O)[C@@H](NC(=O)[C@H](CC(=O)O)NC(=O)[C@H](CC(C)C)NC(=O)[C@H](CC(C)C)NC(=O)CN)[C@@H](C)O)C(=O)N[C@@H](CCCCN)C(=O)N[C@@H](CC(N)=O)C(=O)N[C@@H](CCSC)C(=O)N[C@@H](C)C(=O)N[C@@H](CC(C)C)C(=O)N[C@@H](CC(N)=O)C(=O)N[C@@H](C)C(=O)N[C@@H](C)C(=O)N[C@@H](CCCCN)C(=O)N[C@@H](CO)C(=O)N[C@@H](C)C(=O)NCC(=O)N[C@H](C(=O)N[C@@H](CO)C(=O)N[C@H](C(=O)N[C@@H](CC(C)C)C(=O)N[C@@H](CC(N)=O)C(=O)N[C@H](C(=O)N[C@@H](CC(C)C)C(=O)N[C@@H](CO)C(=O)N[C@H]1CSSC[C@@H](C(=O)O)NC(=O)[C@H]([C@@H](C)O)NC(=O)[C@H](CCCCN)NC(=O)[C@H](CO)NC(=O)[C@H](CC(C)C)NC(=O)[C@H](CCCCN)NC1=O)[C@@H](C)O)C(C)C)C(C)C` [GLLDTIKNMALNAAKSAGVSVLNTLSCKLSKTC], the MIC in assay [1] was determined as 2.56 µM (≈ 8.6 µg/mL); in assay [2] it was 2.56 µM (≈ 8.6 µg/mL); in assay [3], 2.56 µM (≈ 8.6 µg/mL); in [4] it was 5.11 µM (≈ 17.2 µg/mL).
For `CC[C@H](C)[C@H](NC(=O)CNC(=O)[C@@H](NC(=O)[C@H](CCCN=C(N)N)NC(=O)[C@@H](NC(=O)[C@@H](NC(=O)[C@H](CC(=O)O)NC(=O)[C@H](CCSC)NC(=O)CNC(=O)[C@@H](NC(=O)[C@H](CCC(=O)O)NC(=O)[C@H](CCCCN)NC(=O)CNC(=O)[C@@H](NC(=O)[C@H](CC(N)=O)NC(=O)[C@H](CCCCN)NC(=O)[C@H](C)NC(=O)CNC(=O)[C@H](CCCCN)NC(=O)[C@@H](NC(=O)[C@H](Cc1ccccc1)NC(=O)[C@H](CC(C)C)NC(=O)[C@H](CC(N)=O)NC(=O)[C@H](CCCCN)NC(=O)[C@@H](NC(=O)[C@H](C)NC(=O)[C@H](CCCCN)NC(=O)CNC(=O)[C@H](CO)NC(=O)[C@@H](NC(=O)[C@@H](N)CCCCN)[C@@H](C)CC)[C@@H](C)CC)[C@@H](C)CC)C(C)C)C(C)C)C(C)C)C(C)C)[C@@H](C)O)C(=O)N[C@@H](CC(=O)O)C(=O)N[C@H](C(=O)N[C@H](C(=O)NCC(=O)N[C@H]1CSSC[C@@H](C(=O)O)NC(=O)[C@H](CCC(=O)O)NC(=O)CNC(=O)[C@H](CCCCN)NC(=O)[C@H]([C@@H](C)CC)NC(=O)[C@H](CCCCN)NC1=O)C(C)C)C(C)C` [KISGKAIKNLFIKGAKNVGKEVGMDVVRTGIDVVGCKIKGEC], the MIC in assay [1] was 1.5 µM (≈ 6.6 µg/mL); in assay [2], 0.749 µM (≈ 3.3 µg/mL); in assay [3], 1.5 µM (≈ 6.6 µg/mL); in [4], 0.749 µM (≈ 3.3 µg/mL).
Take `CC(C)C[C@H](NC(=O)[C@H](C)NC(=O)[C@H](Cc1c[nH]c2ccccc12)NC(=O)CNC(=O)[C@H](CCCN=C(N)N)NC(=O)[C@@H](N)CCCN=C(N)N)C(=O)N[C@@H](CCCN=C(N)N)C(=O)N1CCC[C@H]1C(=O)N[C@H](C(=O)N[C@@H](CC(C)C)C(=O)N[C@@H](C)C(=O)N[C@@H](Cc1ccccc1)C(=O)NCC(=O)N[C@@H](CCCN=C(N)N)C(=O)N[C@@H](CCCN=C(N)N)C(N)=O)C(C)C` [RRGWALRPVLAFGRR]: the MIC in [1] is more than 30 µM; in assay [5], 14.8 µM and 30 µM; in assay [2] it was more than 30 µM; in assay [6], more than 30 µM; in [7], more than 30 µM; in [8], 30 µM (≈ 54.3 µg/mL).
On to `CC[C@H](C)[C@H](NC(=O)[C@@H](N)C(C)C)C(=O)N[C@H](C(=O)N[C@@H](Cc1ccccc1)C(=O)N[C@H](C(=O)N[C@@H](C)C(=O)N[C@@H](CO)C(=O)N[C@H](C(=O)N[C@@H](C)C(=O)N[C@@H](C)C(=O)N[C@@H](CCC(=O)O)C(=O)N[C@@H](CCSC)C(=O)N[C@@H](CCSC)C(=O)N[C@@H](CCC(N)=O)C(=O)N[C@@H](Cc1cnc[nH]1)C(=O)N[C@H](C(=O)N[C@@H](Cc1ccc(O)cc1)C(=O)N[C@H]1CSSC[C@@H](C(=O)O)NC(=O)[C@H](CCCCN)NC(=O)[C@H](CCCCN)NC(=O)[C@H](CO)NC(=O)[C@H](C)NC(=O)[C@H](C)NC1=O)C(C)C)C(C)C)C(C)C)C(C)C` [VIVFVASVAAEMMQHVYCAASKKC], for which the MIC in assay [1] is 4.79 µM (≈ 12.4 µg/mL); in [2], 2.4 µM (≈ 6.2 µg/mL); in [3], 4.79 µM (≈ 12.4 µg/mL); in assay [4], 9.59 µM (≈ 24.8 µg/mL).

The record behind these values is DBAASP.
